Assay results: ChEMBL document CHEMBL5729309, “Substituted pyrimidines, pharmaceutical compositions and therapeutic methods thereof” (2022)

Tests used:
[1] = biological target: Epidermal growth factor receptor (Homo sapiens, UniProt P00533)
[2] = biological target: T1, Cytoplasmic tyrosine-protein kinase BMX (Homo sapiens, UniProt P51813)
T1 sequence (P51813 whole entry): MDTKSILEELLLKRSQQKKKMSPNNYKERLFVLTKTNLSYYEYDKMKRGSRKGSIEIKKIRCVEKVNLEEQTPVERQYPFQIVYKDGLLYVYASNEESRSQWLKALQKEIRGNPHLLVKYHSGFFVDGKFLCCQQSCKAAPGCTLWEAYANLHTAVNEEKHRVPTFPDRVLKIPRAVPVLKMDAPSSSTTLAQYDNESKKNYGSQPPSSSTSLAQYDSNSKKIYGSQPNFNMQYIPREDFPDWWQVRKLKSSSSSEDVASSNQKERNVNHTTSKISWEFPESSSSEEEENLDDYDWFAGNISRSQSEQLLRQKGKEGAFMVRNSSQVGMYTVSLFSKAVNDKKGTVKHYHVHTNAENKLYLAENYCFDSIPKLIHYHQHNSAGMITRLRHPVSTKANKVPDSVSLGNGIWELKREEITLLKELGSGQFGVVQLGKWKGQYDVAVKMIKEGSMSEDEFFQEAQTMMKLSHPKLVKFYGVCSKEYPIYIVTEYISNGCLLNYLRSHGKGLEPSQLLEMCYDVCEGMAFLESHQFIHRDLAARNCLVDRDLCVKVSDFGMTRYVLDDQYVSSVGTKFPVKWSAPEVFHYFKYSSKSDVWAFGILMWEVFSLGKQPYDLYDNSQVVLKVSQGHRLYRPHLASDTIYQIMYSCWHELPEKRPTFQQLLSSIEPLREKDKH

[3] = biological target: Focal adhesion kinase 1 (Homo sapiens, UniProt Q05397)
Chain of Focal adhesion kinase 1 (Q05397 whole entry): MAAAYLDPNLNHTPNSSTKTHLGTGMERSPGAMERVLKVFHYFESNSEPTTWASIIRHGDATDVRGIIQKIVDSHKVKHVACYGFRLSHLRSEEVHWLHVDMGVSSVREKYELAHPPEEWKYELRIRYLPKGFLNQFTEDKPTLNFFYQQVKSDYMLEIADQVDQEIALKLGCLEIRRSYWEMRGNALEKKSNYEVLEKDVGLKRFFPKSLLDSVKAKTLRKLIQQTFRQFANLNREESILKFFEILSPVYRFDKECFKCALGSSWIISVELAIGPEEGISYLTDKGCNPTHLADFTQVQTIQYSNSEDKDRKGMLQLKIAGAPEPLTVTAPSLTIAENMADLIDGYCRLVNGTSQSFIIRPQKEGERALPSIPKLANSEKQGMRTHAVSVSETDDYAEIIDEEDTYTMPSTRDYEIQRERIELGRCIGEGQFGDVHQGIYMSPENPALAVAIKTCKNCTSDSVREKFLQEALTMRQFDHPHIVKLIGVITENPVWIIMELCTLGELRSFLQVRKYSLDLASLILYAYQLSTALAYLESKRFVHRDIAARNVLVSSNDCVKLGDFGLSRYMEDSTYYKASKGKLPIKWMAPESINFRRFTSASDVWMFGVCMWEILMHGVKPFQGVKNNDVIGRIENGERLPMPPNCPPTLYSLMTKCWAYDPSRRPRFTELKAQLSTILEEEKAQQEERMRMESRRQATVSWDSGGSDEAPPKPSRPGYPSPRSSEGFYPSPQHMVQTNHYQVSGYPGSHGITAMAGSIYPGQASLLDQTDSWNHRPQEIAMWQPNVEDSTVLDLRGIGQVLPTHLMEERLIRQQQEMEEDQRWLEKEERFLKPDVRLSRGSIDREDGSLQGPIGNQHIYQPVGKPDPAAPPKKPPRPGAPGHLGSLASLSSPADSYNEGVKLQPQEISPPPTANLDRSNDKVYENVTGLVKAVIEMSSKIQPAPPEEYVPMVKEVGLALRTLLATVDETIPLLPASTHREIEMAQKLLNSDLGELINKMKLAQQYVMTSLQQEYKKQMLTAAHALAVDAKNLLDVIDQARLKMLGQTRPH

[4] = biological target: T2, Tyrosine-protein kinase ITK/TSK (Homo sapiens, UniProt Q08881)
T2 sequence (Q08881 whole entry): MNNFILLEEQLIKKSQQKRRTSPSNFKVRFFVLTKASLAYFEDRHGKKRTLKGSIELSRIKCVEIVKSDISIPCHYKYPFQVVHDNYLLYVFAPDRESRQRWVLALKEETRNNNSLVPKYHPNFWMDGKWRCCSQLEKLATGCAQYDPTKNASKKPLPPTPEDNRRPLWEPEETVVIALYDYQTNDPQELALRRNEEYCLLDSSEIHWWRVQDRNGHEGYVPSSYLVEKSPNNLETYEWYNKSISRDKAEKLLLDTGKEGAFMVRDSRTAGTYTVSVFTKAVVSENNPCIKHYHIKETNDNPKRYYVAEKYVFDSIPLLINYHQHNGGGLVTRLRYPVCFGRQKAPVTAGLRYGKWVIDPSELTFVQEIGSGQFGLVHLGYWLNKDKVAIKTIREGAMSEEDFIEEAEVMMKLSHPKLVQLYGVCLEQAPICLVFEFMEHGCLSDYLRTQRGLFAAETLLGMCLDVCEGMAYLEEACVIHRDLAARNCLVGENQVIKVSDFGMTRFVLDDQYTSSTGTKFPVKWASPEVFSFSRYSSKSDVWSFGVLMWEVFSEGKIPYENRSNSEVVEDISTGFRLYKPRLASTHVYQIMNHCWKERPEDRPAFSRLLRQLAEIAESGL

Chain of Epidermal growth factor receptor (P00533 whole entry): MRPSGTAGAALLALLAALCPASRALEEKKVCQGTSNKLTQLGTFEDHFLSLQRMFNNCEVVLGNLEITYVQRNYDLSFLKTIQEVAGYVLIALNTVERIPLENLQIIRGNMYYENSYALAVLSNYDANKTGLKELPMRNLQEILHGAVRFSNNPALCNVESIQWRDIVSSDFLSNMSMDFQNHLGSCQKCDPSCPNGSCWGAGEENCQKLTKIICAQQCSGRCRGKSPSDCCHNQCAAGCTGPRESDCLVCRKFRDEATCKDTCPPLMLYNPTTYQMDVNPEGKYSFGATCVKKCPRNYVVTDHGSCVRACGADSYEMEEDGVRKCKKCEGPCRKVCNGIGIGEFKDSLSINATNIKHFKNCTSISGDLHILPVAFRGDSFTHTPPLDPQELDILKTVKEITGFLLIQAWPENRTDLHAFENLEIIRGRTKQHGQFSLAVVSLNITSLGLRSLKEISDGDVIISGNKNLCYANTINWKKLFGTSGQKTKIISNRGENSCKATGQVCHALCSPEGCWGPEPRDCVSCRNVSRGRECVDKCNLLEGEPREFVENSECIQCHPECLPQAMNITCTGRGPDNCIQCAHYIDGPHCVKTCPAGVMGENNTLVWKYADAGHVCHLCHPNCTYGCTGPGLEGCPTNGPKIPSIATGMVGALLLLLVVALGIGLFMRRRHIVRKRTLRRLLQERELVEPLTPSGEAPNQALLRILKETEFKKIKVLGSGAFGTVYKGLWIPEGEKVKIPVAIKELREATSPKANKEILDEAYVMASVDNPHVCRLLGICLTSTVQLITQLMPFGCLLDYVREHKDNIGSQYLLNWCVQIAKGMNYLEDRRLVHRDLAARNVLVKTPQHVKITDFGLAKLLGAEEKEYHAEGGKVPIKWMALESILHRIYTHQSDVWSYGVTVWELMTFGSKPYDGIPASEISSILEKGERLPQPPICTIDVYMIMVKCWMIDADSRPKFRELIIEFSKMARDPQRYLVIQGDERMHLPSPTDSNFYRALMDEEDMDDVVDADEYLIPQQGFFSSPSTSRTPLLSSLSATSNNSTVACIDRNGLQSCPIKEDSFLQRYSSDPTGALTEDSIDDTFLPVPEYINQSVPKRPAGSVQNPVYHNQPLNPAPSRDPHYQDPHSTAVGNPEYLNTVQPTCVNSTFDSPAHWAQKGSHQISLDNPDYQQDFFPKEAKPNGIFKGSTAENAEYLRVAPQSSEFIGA

| Structure (SMILES) | IC50 [1] | IC50 [2] | IC50 [3] | IC50 [4] |
| --- | --- | --- | --- | --- |
| C=CC(=O)Nc1ccccc1Nc1nc(Nc2ccc(OCCCOC3(CC)OCC(C)(C)CO3)cc2)ncc1F | > 0.1 µM | > 0.1 µM | > 0.1 µM | > 0.1 µM |
| C=CC(=O)N1CCC[C@@H](Nc2nc(Nc3ccc(OCCCOC4(CC)OCC(C)(C)CO4)cc3)ncc2F)C1 | > 0.1 µM | < 0.1 µM | > 0.1 µM | > 0.1 µM |
